Results as given in paper PMC3629081, “Tetrahydropyrazolo[1,5-a]Pyrimidine-3-Carboxamide and N-Benzyl-6′,7′-Dihydrospiro[Piperidine-4,4′-Thieno[3,2-c]Pyran] Analogues with Bactericidal Efficacy against Mycobacterium tuberculosis Targeting MmpL3” (PLoS ONE, 2013).
≈ marks a conversion by molar mass, not a printed value. Where “and” joins values, the source holds several entries; their conditions need not be identical. Equal entries are not always repeated. Where two headings read alike, the source gives them in different places. Marks after values point to notes of the source that are not given here.

Key:
[1] = type: in vitro ADME, mouse
Description: (§1) Pooled mouse, rat, dog and human liver microsomes were purchased from Xenotech. Microsomes (final protein concentration 0.5 mg/ml, MgCl2 (final concentration 5 mM) and test compound (final substrate concentration 0.5 µM; final DMSO concentration 0.5 %) in 0.1 M phosphate buffer pH 7.4 were pre-incubated at 37°C prior to the addition of NADPH (final concentration 1 mM) to initiate the reaction. The final incubation volume was 600 µl. Control incubation was included for each compound tested where 0.1 M phosphate buffer pH 7.4 was added instead of NADPH (minus NADPH). One control compound was included with each species. All incubations were performed singularly for each test compound. Each compound was incubated for 30 minutes and samples (90 µl) of incubate were taken at 0, 5, 10, 20 and 30 minutes. The control (minus NADPH) was sampled at 0 and 30 minutes only. The reactions were stopped by the addition of sample to 200 µl of acetonitrile:methanol (3∶1) containing an internal standard. The terminated samples were centrifuged at 3700 rpm for 15 minutes at 4°C to precipitate the protein. Quantitative analysis: following protein precipitation, the samples were analyzed using specific LC-MS/MS conditions. Data analysis: from a plot of ln peak area ratio (compound peak area/internal standard peak area) against time, the gradient of the line was determined. Subsequently, half-life and intrinsic clearance were calculated using the equations below:
(§2) Elimination rate constant (k) = (-gradient) Half life [drawing 1]
(§3) Intrinsic Clearance (CLint) (ml/min/g protein) = [drawing 2] where V = Incubation volume ml/g microsomal protein.

[2] = in words
HepG2 cells = type: cell-based, human; conditions: for HepG2 Tox50: 48 h incubation
Description: Cytotoxicity assay was performed measuring the viability of immortalized human cell line culture (HepG2) after 48 h of incubation with a full curve concentration of the test substances in culture medium. For read out of viability of cells we used Resazurine (BDH®). Resazurin is used as an oxidation-reduction indicator that yields a colorimetric change and a fluorescent signal in response to metabolic activity. As cell grow, metabolic activity results in a chemical reduction of Resazurin indicated by a change from non-fluorescent blue to the reduced fluorescent pink form. The degree of Resazurin fluorescence is therefore, an indicator of the number of viable cells in the culture system. The cytotoxicity results were expressed as Tox50 values (IC50). This was done by calculating the concentration of test compounds that would result in a decrease in Resazurin reduction equivalent to 50% of the concurrent control values. The protocol we followed is described below briefly.
Cell line HepG2 (HB-8065) were cultured with fresh medium (Essential Minimum Eagle Medium, EMEM, supplemented with 5% fetal calf serum and 2 mM L-glutamine) the day before subculturing the plates. On the day of the assay, cells (10,000 cells/well) were seeded in a black 96-well collagen coated microplate with clear bottom, (Becton Dickinson®) except in column 11, that was dispensed only 100 μL of culture medium.
Stock solution from each test substances was prepared in 100% DMSO. Ten serial 1∶2 dilutions were prepared of each test compound and, finally, a 1∶200 dilution was made, in medium, to achieve a final concentration of 0.5% of DMSO. Resazurin tablets (Merck®) were dissolved in phosphate buffer saline at a concentration of 0.0042%.
After 24 h of incubation of the cells (37°C, 5% CO2, 95% relative humidity), a volume of 150 μL of culture medium containing the appropriate test concentrations of the compounds dilutions were added to cells in two replicates. In column 12, only 150 μL of 0.5% DMSO was added (blank control). Then, cells were exposed to test compounds for 48 h. After that, medium was removed and Resazurin solution was added to each well and incubated for further 1.5 h. Fluorescence was measured at an excitation wavelength of 515 nm and an emission wavelength of 590 nm in a Microplate reader 1420 Multilabel HTS counter, Victor 2, (Wallac®) The fluorescence value of each well is corrected by subtracting the background value (average of column 11) from the absolute value. The percentages of inhibition are calculated relatively to the DMSO control wells (average of column 12). For each compound, the average value of the duplicate samples is calculated. Data were processed using an Excel spreadsheet and GraphPad Software analysis. Tox50 values were calculated from the Sigmoidal dose-response (variable slope) curves by nonlinear regression analysis.

M. bovis BCG = type: cell-based, Mycobacterium bovis BCG
[3] = tested on: GFP expressing M. tuberculosis H37Rv in Raw264.7 macrophages; assay: microbe, parasite or virus in culture; type: cell-based, Mycobacterium tuberculosis; conditions: read-out: Intracell. H37Rv MIC80
[4] = type: in vitro ADME, human; conditions: for Cli human: human microsomes
Description: as §1, §2, §3

[5] = tested on: clinical M. tuberculosis isolates; assay: MIC against clinical strains (BACTEC MGIT 960); type: cell-based, Mycobacterium tuberculosis; conditions: for MIC90: Mycobacterium tuberculosis, read-out: M. tuberculosis MIC90 (108 strains)
M. tuberculosis = assay: Killing kinetics assay; type: cell-based, Mycobacterium tuberculosis; conditions: for reduction of cfu counts after one week of treatment: 20x MIC; for in vitro killing behaviour: kill rate over 7 days
[6] = tested on: panel of Gram-positive and Gram-negative organisms; assay: General antimicrobial activity assay (broth microdilution); type: cell-based; conditions: read-out: Antibacterial panel IC50
Description: Whole-cell antimicrobial activity was determined by broth microdilution using the Clinical and Laboratory Standards Institute (CLSI) recommended procedure, Document M7-A7, “Methods for Dilution Susceptibility Tests for Bacteria that Grow Aerobically”. Some compounds have been evaluated against a panel of Gram-positive and Gram-negative organisms, including Enterococcus faecium, Enterococcus faecalis, Haemophilus influenzae, Moraxella catarrhalis, Streptococcus pneumoniae, Escherichia coli and Streptococcus pyogenes. The MIC was determined as the lowest concentration of compound producing a >80 % reduction in fluorescence observed.

M. tuberculosis H37Rv [7] = assay: MIC determination against M. tuberculosis H37Rv (resazurin); type: cell-based, Mycobacterium tuberculosis
in vivo = assay: in vivo; set-up: species or system mice
Description: Figure 5 Whole blood pharmacokinetic profile and main parameters of compounds 3 and 4. Compounds were given orally at 50 mg/Kg suspension in 1% aqueous methylcellulose. Main pharmacokinetic parameters were established after non-compartimental analysis. AUC: Area Under the Curve; Cmax: Maximum concentration observed in whole blood; %F: percentage bioavailability. TEXT PRINTED IN THE PICTURE: 3: Tmax (h): 3.0 ± 2.8 (Dose (mg/kg): 50); Cmax (μg/ml): 1.8 ± 0.5 (Dose (mg/kg): 50); AUC0-24h (μg*h/ml): 26.2 ± 9.4 (Dose (mg/kg): 50); DNAUC0-24h (μg*h/ml per mg/kg): 0.6 ± 0.2 (Dose (mg/kg): 50); %F: 96.1 ± 32.2 (Dose (mg/kg): 50) | 4: Tmax (h): 0.7 ± 0.1 (Dose (mg/kg): 50); Cmax (μg/ml): 1.3 ± 0.2 (Dose (mg/kg): 50); AUC0-24h (μg*h/ml): 8.7 ± 0.6 (Dose (mg/kg): 50); DNAUC0-24h (μg*h/ml per mg/kg): 0.20 ± 0.01 (Dose (mg/kg): 50); %F: 54.6 ± 5.4 (Dose (mg/kg): 50)
Experimental compounds were administered by oral gavage at 50 mg/kg single dose at a volume of 20 ml/kg to n = 5 mice. All mice received treatment in the fed state. Peripheral total blood was the compartment chosen for the establishment of compound concentrations: 25 μl of blood was taken from the lateral tail vein for each mouse at 15, 30 and 45 minutes, 1, 2, 4, 8 and 24 hours. LC-MS was used as the analytical method of choice for the establishment of compound concentration in blood with a sensitivity of LLQ = 1–5 ng/ml in 25 µl blood. The non-compartmental data analysis (NCA) was performed with WinNonlin Phoenix 6.3 (Pharsight, Certara L.P) and supplementary analysis was performed with GraphPad Prism 5 (GraphPad Software, Inc).

M. tuberculosis H37Rv [8] = assay: In vivo efficacy in acute TB murine model; set-up: species or system Mycobacterium tuberculosis
[9] = Mycobacterium tuberculosis, H37RV
[10] = Sensitive phenotype, 60 strains
[11] = monoR H (Isoniazid), 20 strains
[12] = monoR Rf (Rifampicin), 3 strains
[13] = monoR Sm (Streptomycin), 11 strains

Row | Structure (SMILES) | Cli mouse ([1]; mouse microsomes) [mL/min/g] | HepG2 Tox50 (HepG2 cells) | effect on TMM in [14C]-labelled cultures (M. bovis BCG) | effect on other classes of lipids, in particular phospholipids (M. bovis BCG) | MIC80 [3, 9] [µM] | Cli human [4] [mL/min/g] | Range of MIC's [5] | MIC90 [5] [µM] | Range of MIC's [5, 10] [µM] | Range of MIC's [5, 11] [µM] | Range of MIC's [5, 12] [µM] | Range of MIC's [5, 13] [µM] | reduction of cfu counts after one week of treatment (M. tuberculosis) [log cfu] | in vitro killing behaviour (M. tuberculosis) | solubility (physchem) [µM] | IC50 [6] [µM] | MIC (M. tuberculosis H37Rv [7]; Mycobacterium tuberculosis) [µM] | other results
1 | CCc1ccc([C@H]2C[C@@H](C(F)(F)F)n3ncc(C(=O)NCc4ccc(OC)cc4)c3N2)cc1 [Compound 1, (5R,7S)-5-(4-ethylphenyl)-N-(4-methoxybenzyl)-7-(trifluoromethyl)-4,5,6,7-tetrahydropyrazolo[1,5-a]pyrimidine-3-carboxamide] | 0.69 | >25 ^* µM | accumulation of TMM | unaffected | 0.16 (≈ 0.0734 µg/mL) | 0.29 | 0.16 to 2.5 µM and 0.3 to 5 µM | 0.6 (≈ 0.275 µg/mL) | 0.16 to 0.6 | 0.16 to 0.6 | 0.16 to 0.3 | 0.16 to 0.6 | > 3 | bactericidal | 5 (≈ 2.29 µg/mL) | ≥ 32 | 0.3 (≈ 0.138 µg/mL) | solubility in different media [2]: very low solubility; signs of cytotoxicity at the maximum concentration tested (HepG2 cells; maximum concentration where compound was in solution): did not show initial signs of cytotoxicity
2 | c1cc2c(s1)CCOC21CCN(Cc2ccc3c(c2)OCCO3)CC1 [Compound 2] | >30 | 36 µM | accumulation of TMM | unaffected | 0.63 (≈ 0.225 µg/mL) | 25 | 0.3 to 1.25 µM | 0.6 (≈ 0.214 µg/mL) | 0.3 to 1.25 | 0.3 to 10 | 0.6 to 10 | 0.3 to 10 | > 3 | bactericidal | 266 (≈ 95.1 µg/mL) | ≥ 16 | 0.3 (≈ 0.107 µg/mL) | intrinsic clearance values in mice microsomes ([1]; in words): poor; intrinsic clearance values in human microsomes ([4]; in words): poor
3 | CCc1ccc([C@H]2C[C@@H](C(F)(F)F)n3ncc(C(=O)NCc4ccc5c(c4)OCO5)c3N2)cc1 [Compound 3] | 0.8 | > 25 µM |  |  |  |  |  |  |  |  |  |  |  |  |  |  | < 0.5 | DNAUC0-24h (in vivo; mice, oral 50 mg/kg, whole blood): 0.6 ± 0.2 μg*h/ml per mg/kg; AUC(0-t) (in vivo; mouse, in vivo, po, 50 mg/kg, mice, oral 50 mg/kg, whole blood, read-out: AUC0-24h): 26200 ± 9400 ng·h/mL; AUC(0-t) (in vivo; mouse, in vivo, po, 50 mg/kg, po 50 mg/kg (Figure 4), read-out: AUC 24h): 26500 ng·h/mL; AUC (in vivo; mouse, in vivo, po, 50 mg/kg, minimum requirement fulfilled, read-out: AUC after oral administration 50 mg/kg): > 1000 ng·h/mL; bioavailability (in vivo; mouse, in vivo, mice, oral 50 mg/kg, whole blood, read-out: %F): 96.1 ± 32.2%; Cmax (in vivo; mouse, in vivo, mice, oral 50 mg/kg, whole blood, read-out: Cmax): 1800 ± 500 ng/mL; Tmax (in vivo; mouse, in vivo, mice, oral 50 mg/kg, whole blood, read-out: Tmax): 3 ± 2.8 h; MIC80 [3]: 0.31 µM (≈ 0.146 µg/mL); reduction in lung bacterial load (M. tuberculosis H37Rv [8]; 100 mg/kg orally once a day, day 1 to day 8, B6 mice): 1.5 log units; reduction in lung bacterial load (M. tuberculosis H37Rv [8]; 300 mg/kg orally once a day, day 1 to day 8, B6 mice): 2.2 log units; MIC (M. tuberculosis H37Rv [7]): 0.16 µM (≈ 0.0756 µg/mL)
4 | Cl.FC(F)(F)Oc1ccc(Oc2ccc(CN3CCC4(CC3)OCCc3sccc34)cc2)cc1 [Compound 4] |  | 36 µM |  |  |  |  |  |  |  |  |  |  |  |  |  |  |  | Cli mouse ([1]; mouse, pH 7.4): 1.2 mL/min/g; AUC (in vivo; mouse, in vivo, po, 50 mg/kg): > 1000 ng·h/mL; Cmax (in vivo; mouse, in vivo, po, 50 mg/kg): 1300 ± 200 ng/mL; DNAUC0-24h (in vivo; mouse, in vivo, po, 50 mg/kg): 0.20 ± 0.01 μg*h/ml per mg/kg; Tmax (in vivo; mouse, in vivo, po, 50 mg/kg): 0.7 ± 0.1 h; bioavailability (in vivo; mouse, in vivo, po, 50 mg/kg): 54.6 ± 5.4%; AUC(0-t) (in vivo; mouse, in vivo, po, 50 mg/kg, AUC0-24h): 8700 ± 600 ng·h/mL; AUC(0-t) (in vivo; mouse, in vivo, po, 50 mg/kg, AUC 24h): 8700 ng·h/mL; reduction in lung bacterial load (M. tuberculosis H37Rv [8]; in vivo): 2.3 log units and 2.7 log units
